Results from patent US8486965B2, “Pyrrolo[2,3-b]pyridine derivative and use thereof for treatment of cancer” (Takeda Pharmaceutical Company Limited, priority 2009, dated 2013).

System: Hedgehog signal transduction system (Smo)
Experiment: Gli reporter luciferase assay in NIH-3T3/Gli reporter cells stimulated with mouse Shh-N end fragment
Format: cell-based
Settings: NIH3T3; 1 μM compound; NIH-3T3/Gli reporter cells with mouse Shh-N end fragment culture supernatant, 48 hr; luciferase activity, control without compound as 100; read-out: inhibition rate (%) at 1 μM
From the text: Inhibition of the Hedgehog signal transduction system can be measured, for example, by quantifying a decrease in the expression level of a reporter gene connected to the downstream of the Gli binding site based on the fluorescence intensity according to the following Experimental Example 1. Alternatively, it can be measured by quantifying the expression of Gli-1 mRNA in a cell extract by quantitative PCR method and the like. A compound that inhibits Hedgehog signal targets Smo, which can be confirmed, for example, by binding fluorescence-labeled Cyclopamine and a test compound to cells expressing Smo, measuring the fluorescence level of the cell, and comparing the value with that without addition of a test compound to find a decrease.
Gli reporter plasmid was constructed by inserting 8×Gli-binding site and chicken δ-crystalline promoter into the upstream of luc+ of pGL3 (Promega).
prepared in reference to the base sequence described in GenBank accession No.; X02187, and chicken genome DNA (Clontech) as a template. PCR reaction was performed using Pfu Turbo (Stratagene) and following the attached protocol. The obtained 108 bp fragment was digested with restriction enzymes BglII and HindIII, and inserted into BglII-HindIII site of pGL3 to give plasmid pGL3/δ-cry promoter.
As 8× Gli-binding site, a sequence containing eight 9-bp Gli bound consensus sequences (GACCACCCA) described in Yoon et al., J. Biol. Chem., vol. 273, pages 3496-3501 (1998) was prepared from synthetic DNA. That is, two synthetic DNAs,
were heat treated at 95° C. for 2 minutes, and incubated at 37° C. for 1 hr for annealing to give a double stranded DNA of the above-mentioned two synthetic DNAs. The obtained double stranded DNA was digested with restriction enzymes BglII and KpnI, and the obtained DNA fragment was inserted into BglII-KpnI site of pGL3/δ-cry promoter to construct plasmid pGL3/δ-cry promoter, 8× Gli binding site, i.e., Gli reporter plasmid. 2. Construction of Plasmid for Expression of Mouse Shh-N End Fragment
As a material for construction of plasmid for Shh-N end fragment expression, mouse Shh cDNA was cloned at first.
The mouse Shh cDNA was cloned by Nested PCR method using mouse 11-day fetus cDNA (Clontech) as a template. The primer sequence was prepared in reference to the base sequence described in GenBank accession No.; NM_009170.
Using the mouse Shh cDNA sequence obtained as mentioned above as a template, a partial cDNA sequence wherein stop codon (TGA) was added to 3′-terminal of cDNA sequence encoding 1st to 198th amino acid sequence of mouse Shh was obtained by PCR method. As the primer set,
In the manner mentioned above, a plasmid for mouse Shh-N end fragment expression, pcDNA3.1/mShh-N, was constructed.
HEK293 cells were grown in D-MEM medium (Invitrogen) containing 10% fetal bovine serum in a 10 cm dish and pcDNA3.1/mShh-N was introduced into the cells using FuGENE6 (Roche Applied Science). Thereafter, the HEK293 cells were cultured in a carbon dioxide gas incubator at 37° C. for 24 hours, and the medium was exchanged with D-MEM medium (Invitrogen) containing 2% fetal bovine serum. After culturing for 48 hr, culture supernatant containing recombinant type mouse Shh-N end fragment was obtained by filtration using a filter ([…]).
Using D-MEM (Invitrogen) containing 10% fetal bovine serum, expression plasmid pcDNA3:1 and Gli reporter plasmid (pGL3/δ-cry promoter, 8× Gli binding site) produced by the method of Experimental Example 1 were introduced into NIH-3T3 cells grown in a 10 cm dish by the use of FuGENE6 (Roche Applied Science).
After culture for 24 hr, the cells were recovered, suspended in D-MEM medium containing 10% fetal bovine serum and supplemented with Geneticin (Life Technologies Oriental, Inc.) to a final concentration of 500 μg/ml, diluted to 10^4 cells/ml, plated on a 96 well plate, and cultured in a carbon dioxide gas incubator at 37° C. to give Geneticin resistant transformed cell line. […]

| SMILES | inhibition at 1 µM |
| --- | --- |
| CCc1nc2c(cc1NC(=O)c1ccccc1)c(OCC(F)(F)F)c(C(=O)NC1CCS(=O)(=O)CC1)n2C [Example 40, N-(1,1-dioxidotetrahydro-2H-thiopyran-4-yl)-6-ethyl-1-methyl-5-[(phenylcarbonyl)amino]-3-(2,2,2-trifluoroethoxy)-1H-pyrrolo[2,3-b]pyridine-2-carboxamide] | 97% |
| CCc1nc2c(cc1NC(=O)c1nccs1)c(OCC(F)(F)F)c(C(=O)NC1CCN(C(=O)CO)CC1)n2C [Example 69, 6-ethyl-N-[1-(hydroxyacetyl)piperidin-4-yl]-1-methyl-5-[(1,3-thiazol-2-ylcarbonyl)amino]-3-(2,2,2-trifluoroethoxy)-1H-pyrrolo[2,3-b]pyridine-2-carboxamide] | 99% |
| CCc1cc2c(nc1NC(=O)c1ccc(F)cc1)c(OC(C)C)c(C(=O)NC1CCN(C(=O)CO)CC1)n2C [Example 167, 6-ethyl-5-{[(4-fluorophenyl)carbonyl]amino}-N-[1-(hydroxyacetyl)piperidin-4-yl]-1-methyl-3-(1-methylethoxy)-1H-pyrrolo[3,2-b]pyridine-2-carboxamide] | 99% |
| Cc1nc2c(nc1NC(=O)c1ccccc1)c(OCC(F)(F)F)c(C(=O)NC1CCN(C(=O)CO)CC1)n2C [Example 145, N-[1-(hydroxyacetyl)piperidin-4-yl]-3,5-dimethyl-2-[(phenylcarbonyl)amino]-7-(2,2,2-trifluoroethoxy)-5H-pyrrolo[2,3-b]pyrazine-6-carboxamide] | 98% |
| Cc1cc2c(nc1-c1ccccc1)c(OCC(F)(F)F)c(C(=O)NC1CCN(C(=O)CO)CC1)n2C [Example 136, N-[1-(hydroxyacetyl)piperidin-4-yl]-1,6-dimethyl-5-phenyl-3-(2,2,2-trifluoroethoxy)-1H-pyrrolo[3,2-b]pyridine-2-carboxamide] | 95% |
| CCc1cc2c(cc1NC(=O)c1ccc(Cl)cc1)c(OC(C)C)c(C(=O)NC1CCN(C(=O)CO)CC1)n2C [Example 169, 5-{[(4-chlorophenyl)carbonyl]amino}-6-ethyl-N-[1-(hydroxyacetyl)piperidin-4-yl]-1-methyl-3-(1-methylethoxy)-1H-indole-2-carboxamide] | 99% |
| CCc1nc2c(cc1NC(=O)c1ccccc1)c(OCC(F)(F)F)c(C(=O)NC1CCN(C(=O)CO)CC1)n2C [Example 7, 6-ethyl-N-[1-(hydroxyacetyl)piperidin-4-yl]-1-methyl-5-[(phenylcarbonyl)amino]-3-(2,2,2-trifluoroethoxy)-1H-pyrrolo[2,3-b]pyridine-2-carboxamide] | 96% |
| CCc1nc2c(cc1NC(=O)c1cccc(F)c1)c(OCC(F)(F)F)c(C(=O)NC1CCN(C(=O)CO)CC1)n2C [Example 30, 6-ethyl-5-{[(3-fluorophenyl)carbonyl]amino}-N-[1-(hydroxyacetyl)piperidin-4-yl]-1-methyl-3-(2,2,2-trifluoroethoxy)-1H-pyrrolo[2,3-b]pyridine-2-carboxamide] | 97% |
| CCOc1c(C(=O)NC2CCN(C(=O)CO)CC2)n(C)c2cc(CC)c(NC(=O)c3ccccc3)nc12 [Example 129, 3-ethoxy-6-ethyl-N-[1-(hydroxyacetyl)piperidin-4-yl]-1-methyl-5-[(phenylcarbonyl)amino]-1H-pyrrolo[3,2-b]pyridine-2-carboxamide] | 92% |
| CCc1cc2sc(C(=O)NC3CCN(C(=O)CO)CC3)c(OC(C)C)c2cc1NC(=O)c1ccccc1 [Example 151, 6-ethyl-N-[1-(hydroxyacetyl)piperidin-4-yl]-3-(1-methylethoxy)-5-[(phenylcarbonyl)amino]-1-benzothiophene-2-carboxamide] | 98% |
| CCc1nc2c(cc1NC(=O)c1ccccc1F)c(OCC(F)(F)F)c(C(=O)NC1CCN(C(=O)CO)CC1)n2C [Example 22, 6-ethyl-5-{[(2-fluorophenyl)carbonyl]amino}-N-[1-(hydroxyacetyl)piperidin-4-yl]-1-methyl-3-(2,2,2-trifluoroethoxy)-1H-pyrrolo[2,3-b]pyridine-2-carboxamide] | 93% |
| Cc1nc2c(nc1NC(=O)c1ccccc1)c(OC(C)C)c(C(=O)NC1CCN(C(=O)CO)CC1)n2C [Example 164, N-[1-(hydroxyacetyl)piperidin-4-yl]-3,5-dimethyl-7-(1-methylethoxy)-2-[(phenylcarbonyl)amino]-5H-pyrrolo[2,3-b]pyrazine-6-carboxamide] | 99% |
| CCc1nc2c(cc1NC(=O)c1ccoc1)c(OCC(F)(F)F)c(C(=O)NC1CCN(C(=O)CO)CC1)n2C [Example 54, 6-ethyl-5-[(furan-3-ylcarbonyl)amino]-N-[1-(hydroxyacetyl)piperidin-4-yl]-1-methyl-3-(2,2,2-trifluoroethoxy)-1H-pyrrolo[2,3-b]pyridine-2-carboxamide] | 99% |
| CCc1nc2sc(C(=O)NC3CCN(C(=O)CO)CC3)c(OCC(F)(F)F)c2cc1NC(=O)c1ccc(F)cc1 [Example 58, 6-ethyl-5-{[(4-fluorophenyl)carbonyl]amino}-N-[1-(hydroxyacetyl)piperidin-4-yl]-3-(2,2,2-trifluoroethoxy)thieno[2,3-b]pyridine-2-carboxamide] | 97% |
| CCc1nc2c(cc1NC(=O)c1ccc(OC)cc1)c(OCC(F)(F)F)c(C(=O)NC1CCN(C(=O)CO)CC1)n2C [Example 34, 6-ethyl-N-[1-(hydroxyacetyl)piperidin-4-yl]-5-{[(4-methoxyphenyl)carbonyl]amino}-1-methyl-3-(2,2,2-trifluoroethoxy)-1H-pyrrolo[2,3-b]pyridine-2-carboxamide] | 93% |
| CCc1cc2c(nc1-c1ccccc1)c(OCC(F)(F)F)c(C(=O)NC1CCN(C(=O)CO)CC1)n2C [Example 128, 6-ethyl-N-[1-(hydroxyacetyl)piperidin-4-yl]-1-methyl-5-phenyl-3-(2,2,2-trifluoroethoxy)-1H-pyrrolo[3,2-b]pyridine-2-carboxamide] | 94% |
| CCc1nc2c(nc1NC(=O)c1ccccc1)c(OCC(F)(F)F)c(C(=O)NC1CCN(C(=O)CO)CC1)n2C [Example 160, 3-ethyl-N-[1-(hydroxyacetyl)piperidin-4-yl]-5-methyl-2-[(phenylcarbonyl)amino]-7-(2,2,2-trifluoroethoxy)-5H-pyrrolo[2,3-b]pyrazine-6-carboxamide] | 99% |
| CCc1nc2c(cc1CC(=O)c1ccccc1)c(OCC(F)(F)F)c(C(=O)NC1CCN(C(=O)CO)CC1)n2C [Example 9, 6-ethyl-N-[1-(hydroxyacetyl)piperidin-4-yl]-1-methyl-5-(2-oxo-2-phenylethyl)-3-(2,2,2-trifluoroethoxy)-1H-pyrrolo[2,3-b]pyridine-2-carboxamide] | 98% |
| Cc1nc2c(cc1NC(=O)c1ccccc1)c(OCC(F)(F)F)c(C(=O)NC1CCN(C(=O)CO)CC1)n2C [Example 47, N-[1-(hydroxyacetyl)piperidin-4-yl]-1,6-dimethyl-5-[(phenylcarbonyl)amino]-3-(2,2,2-trifluoroethoxy)-1H-pyrrolo[2,3-b]pyridine-2-carboxamide] | 97% |
| CCc1nc2c(cc1NC(=O)c1ccccc1)c(OCC(F)(F)F)c(C(=O)NC1CC[S+]([O-])CC1)n2C (centres unmarked) [Example 41, 6-ethyl-1-methyl-N-(1-oxidotetrahydro-2H-thiopyran-4-yl)-5-[(phenylcarbonyl)amino]-3-(2,2,2-trifluoroethoxy)-1H-pyrrolo[2,3-b]pyridine-2-carboxamide] | 96% |
